The text below walks through data of patent US8993595B2, “Macrocyclic serine protease inhibitors” (priority 2009, dated 2015).

Data set [1] deals with D-1a cell line (genotype 1a replicon selected with 25 nM, D168A). Nature of the data set: Extent of resistance after selection, D-1a. It counts as cell-based, HCV. The following applies: selecting conc. 25 nM. The protocol:
Replicon cells (genotype 1a or 1b) were treated with various concentrations of compound 52 in the presence of G418. Treatment-emergent genotypic changes were identified by population sequencing of NS3 (both protease and helicase regions). The activity of compound 52 and other compounds was evaluated by NS5A western blot after selection or luciferase assay during and after selection.

For data set [2] the following is noted: 400 mg per day.

Where two headings read alike, the source gives them in different places. Bounds are passed on as bounds.

`COc1ccc2c(O[C@H]3CCN4C(=O)N(C)CCCC/C=C\[C@@H]5C[C@@]5(C(=O)NS(=O)(=O)C5(C)CC5)NC(=O)[C@@H]4C3)cc(-c3nc(C(F)(F)F)cs3)nc2c1C` [Compound 52, 1-methyl-cyclopropanesulfonic acid{(Z)-(1S,4R,6S,18S)-18-[7-methoxy-8-methyl-2-(4-trifluoromethyl-thiazol-2-yl)-quinolin-4-yloxy]-13-methyl-2,14-dioxo-3,13,15-triaza-tricyclo[13.4.0.0*4,6*]nonadec-7-ene-4-carbonyl}amide] had a Fold-Change in data set [1] greater than 2750. The C24 hr is 117 ± 53 ng/mL in data set [2] (PK Day 1), 165 ± 87 ng/mL in data set [2] (PK Day 2) and 197 ± 112 ng/mL in data set [2] (PK Day 3).
